Data published in patent publication US7884215B2, “2-substituted benzimidazoles” (priority 2005, dated 2011).

Test system: Respiratory Syncytial Virus
Test: microbe, parasite or virus in culture
Type: cell-based
Conditions: human respiratory syncytial virus, 168 h; antiviral activity; protection against cytopathology caused by RSV in HeLa cells, MTT read-out seven days after infection
Description: The percent protection against cytopathology caused by viruses (antiviral activity or EC50) achieved by tested compounds and their cytotoxicity (CC50) are both calculated from dose-response curves.
Automated tetrazolium-based colorimetric assays were used for determination of EC50 and CC50 of test compounds. […] Subsequently, stock solutions (7.8× final test concentration) of compounds were added in 45 μl volumes to a series of triplicate wells so as to allow simultaneous evaluation of their effects on virus- and mock-infected cells. Five five-fold dilutions were made directly in the microtiter trays using a robot system. Untreated virus controls, and HeLa cell controls were included in each test. Approximately 100 TCID50 of Respiratory Syncytial Virus was added to two of the three rows in a volume of 50 μl. The same volume of medium was added to the third row to measure the cytotoxicity of the compounds at the same concentrations as those used to measure the antiviral activity. […] Finally, the absorbances were read in an eight-channel computer-controlled photometer (Multiskan MCC, Flow Laboratories) at two wavelengths (540 and 690 nm). The absorbance measured at 690 nm was automatically subtracted from the absorbance at 540 nm, so as to eliminate the effects of non-specific absorption.

Cc1ccc(CCCO)c(NCc2ccc3nc(C(N)=O)n(Cc4nc(C)ccc4O)c3c2)c1 [d-10]
EC50: 631 nM
